Assay results reported in ChEMBL document CHEMBL3600333, “Optimization of a Stable Linker Involved DEVD Peptide-Doxorubicin Conjugate That Is Activated upon Radiation-Induced Caspase-3-Mediated Apoptosis” (J Med Chem, 2015).
Activity calls are given as the source filed them. The rule behind the calls is not given here. Numbered stars: 1 amine (or outer) side, 2 acyl side, 3 side chain; on linkers, the order of the positions; unused ones are H or OH. Square brackets hold non-standard residues; d marks the D form. Peptide text beside a SMILES is read from it. * marks the point of attachment. Doxorubicin(3'-N) = COc1cccc2c1C(=O)c1c(O)c3c(c(O)c1C2=O)C[C@@](O)(C(=O)CO)C[C@@H]3O[C@H]1C[C@H](N*)[C@H](O)[C@H](C)O1; Mal(S(CH2)2NH)(CH2)5CO = O=C1CC(SCCN[*:1])C(=O)N1CCCCCC(=O)[*:2]

Key:
[1] = Octanol-water partition coefficient, log P of the compound at 100 ug after 3 hrs by shake-flask method; type: physicochemical
[2] = Drug uptake in nucleus of human MDA-MB-231 cells at 10 uM after 18 hrs by DAPI staining-based confocal laser scanning microscopic analysis; type: ADME, cell-based; settings: mda-mb-231, 18 h
[3] = Drug uptake in cytoplasm of human MDA-MB-231 cells at 10 uM after 18 hrs by DAPI staining-based confocal laser scanning microscopic analysis; type: ADME, cell-based; settings: mda-mb-231, 18 h
[4] = system: MDA-MB-231; test: Cytotoxicity against human MDA-MB-231 cells assessed as cell viability after 48 hrs by MTT assay; type: functional, cell-based; settings: for IC50: MDA-MB-231, 48 h
[5] = Antitumor activity against mouse SCC7 cells allografted in Balb-c/nu mouse assessed as tumor growth inhibition at 5 mg/kg molar equivalent of doxorubicin, iv administered daily for 7 days without X-ray treatment relative to control; type: functional, SCC-7
[6] = molecular target: T1, Caspase-3 (Homo sapiens, UniProt P42574); test: Prodrug conversion assessed as recombinant human caspase-3-mediated compound 8 formation at 100 uM after 60 mins by HPLC analysis in presence of caspase-3 inhibitor Ac-DEVD-CHO; type: ADME; settings: 1 h
T1 sequence (P42574 whole entry): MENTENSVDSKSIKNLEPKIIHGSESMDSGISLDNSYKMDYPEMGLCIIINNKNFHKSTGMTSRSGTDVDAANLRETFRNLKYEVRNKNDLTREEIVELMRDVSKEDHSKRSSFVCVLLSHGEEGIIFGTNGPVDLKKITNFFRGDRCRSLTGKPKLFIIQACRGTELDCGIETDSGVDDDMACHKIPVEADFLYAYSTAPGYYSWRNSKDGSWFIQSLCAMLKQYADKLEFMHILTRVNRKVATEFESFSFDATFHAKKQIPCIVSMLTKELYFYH

[7] = Drug uptake in cytoplasm of human MDA-MB-231 cells assessed as DEVD moiety level at 100 uM using cyanine5.5-labeled compound after 1 hr by DAPI staining-based confocal laser scanning microscopic analysis in presence of recombinant human caspase-3; type: ADME, cell-based; settings: mda-mb-231, 1 h
[8] = system: MDA-MB-231; test: Cytotoxicity against human MDA-MB-231 cells assessed as cell viability at 100 uM after 48 hrs by MTT assay in absence of recombinant human caspase-3; type: functional, cell-based
[9] = system: Mus musculus; test: Toxicity in Balb-c/nu mouse allografted with mouse SCC7 cells assessed as mortality at 5 mg/kg molar equivalent of doxorubicin, iv administered daily for 7 days measured until day 14; type: organism-based, SCC-7; settings: in vivo, 168 h
[10] = system: MDA-MB-231; test: Induction of apoptosis in human MDA-MB-231 cells assessed as change in cell morphology at 5 uM preincubated for 24 hrs followed by exposure to 5 Gy linear X-ray measured after 6 to 24 hrs by DAPI staining-based fluorescence microscopic analysis; type: functional
[11] = Stability of the compound at 100 uM after 60 mins by HPLC analysis in absence of recombinant human caspase-3; type: physicochemical; settings: 1 h
[12] = system: Mus musculus; test: Toxicity in Balb-c/nu mouse allografted with mouse SCC7 cells assessed as decrease in body weight at 5 mg/kg molar equivalent of doxorubicin, iv administered daily for 7 days with 10 Gy X-ray treatment on first day of drug administration measured until day 14; type: organism-based, SCC-7; settings: in vivo, 168 h
[13] = system: MDA-MB-231; test: Induction of apoptosis in human MDA-MB-231 cells assessed as upregulation of cleaved caspase-3 expression at 1 to 100 uM pretreated with X-ray measured after 24 to 72 hrs by Western blot analysis; type: functional, cell-based
[14] = Prodrug conversion assessed as 6-(3-(2-aminoethylthio)-2,5-dioxopyrrolidin-1-yl)-N-((2S,3S,4S,6R)-3-hydroxy-2-methyl-6-((1S,3S)-3,5,12-trihydroxy-3-(2-hydroxyacetyl)-10-methoxy-6,11-dioxo-1,2,3,4,6,11-hexahydrotetracen-1-yloxy)tetrahydro-2H-pyran-4-yl)hexanamide formation at 100 uM after 60 mins by HPLC analysis in absence of recombinant human caspase-3; type: physicochemical; settings: 1 h
[15] = system: MDA-MB-231; test: Induction of apoptosis in human MDA-MB-231 cells assessed as upregulation of cleaved caspase-3 expression preincubated with recombinant human caspase-3 measured after 48 hrs by Western blot analysis; type: functional, cell-based
[16] = Drug uptake in nucleus of human MDA-MB-231 cells assessed as doxorubicin moiety level at 100 uM using cyanine5.5-labeled compound after 1 hr by DAPI staining-based confocal laser scanning microscopic analysis in presence of recombinant human caspase-3; type: ADME, cell-based; settings: mda-mb-231, 1 h
[17] = system: MDA-MB-231; test: Cytotoxicity against human MDA-MB-231 cells assessed as decrease in cell viability at 5 uM with 5 Gy linear X-ray treatment measured at 48 hrs by MTT assay (reference value: 53%); type: functional
[18] = system: Mus musculus; test: Toxicity in Balb-c/nu mouse allografted with mouse SCC7 cells assessed as decrease in body weight at 5 mg/kg molar equivalent of doxorubicin, iv administered daily for 7 days without X-ray treatment measured until day 14; type: organism-based, SCC-7; settings: in vivo, 168 h
[19] = Drug uptake in nucleus of human MDA-MB-231 cells assessed as doxorubicin moiety level at 5 uM preincubated for 24 hrs followed by exposure to 5 Gy linear X-ray measured at 24 hrs by DAPI staining-based fluorescence microscopic analysis; type: ADME, cell-based; settings: mda-mb-231, 24 h
[20] = system: MDA-MB-231; test: Induction of apoptosis in human MDA-MB-231 cells assessed as downregulation of procaspase-3 expression at 1 to 100 uM preincubated with recombinant human caspase-3 measured after 48 hrs by Western blot analysis; type: functional, cell-based
[21] = Retention time of the compound at 100 uM after 60 mins by HPLC analysis in absence of recombinant human caspase-3; type: physicochemical; settings: 1 h
[22] = Drug uptake in nucleus of human MDA-MB-231 cells assessed as doxorubicin moiety level at 5 uM preincubated for 24 hrs followed by exposure to 5 Gy linear X-ray measured at 6 hrs by DAPI staining-based fluorescence microscopic analysis; type: ADME, cell-based; settings: mda-mb-231, 6 h
[23] = Antitumor activity against mouse SCC7 cells allografted in Balb-c/nu mouse assessed as tumor growth inhibition at 5 mg/kg molar equivalent of doxorubicin, iv administered daily for 7 days with 10 Gy X-ray treatment on first day of drug administration (reference value: 54%); type: functional, SCC-7
[24] = system: MDA-MB-231; test: Cytotoxicity against human MDA-MB-231 cells assessed as decrease in cell viability at 5 uM with 5 Gy linear X-ray treatment after 24 hrs by MTT assay; type: functional, cell-based
[25] = system: MDA-MB-231; test: Induction of apoptosis in human MDA-MB-231 cells assessed as upregulation of cleaved caspase-3 expression up to 100 uM after 48 hrs by Western blot analysis; type: functional, cell-based
[26] = system: MDA-MB-231; test: Cytotoxicity against human MDA-MB-231 cells assessed as cell viability up to 10 uM after 48 hrs by MTT assay in absence of recombinant human caspase-3; type: functional, cell-based
[27] = system: MDA-MB-231; test: Cytotoxicity against human MDA-MB-231 cells assessed as cell viability at 0.1 to 100 uM after 48 hrs by MTT assay in presence of recombinant human caspase-3; type: functional, cell-based
[28] = system: Mus musculus; test: Toxicity in Balb-c/nu mouse allografted with mouse SCC7 cells assessed as mortality at 5 mg/kg, iv administered daily measured within 6 days; type: organism-based, SCC-7; settings: in vivo, 144 h
[29] = Retention time of the compound treated with (6S,9S,12S,15S,18S)-1,6-diamino-12-(2-carboxyethyl)-9-(carboxymethyl)-18-(2-(1-(6-((2S,3S,4S,6R)-3-hydroxy-2-methyl-6-((1S,3S)-3,5,12-trihydroxy-3-(2-hydroxyacetyl)-10-methoxy-6,11-dioxo-1,2,3,4,6,11-hexahydrotetracen-1-yloxy)tetrahydro-2H-pyran-4-ylamino)-6-oxohexyl)-2,5-dioxopyrrolidin-3-ylthio)ethylcarbamoyl)-1-imino-15-isopropyl-7,10,13,16-tetraoxo-2,8,11,14,17-pentaazaicosan-20-oic acid at 100 uM by HPLC analysis in presence of recombinant human caspase-3; type: physicochemical
[30] = system: MDA-MB-231; test: Induction of apoptosis in human MDA-MB-231 cells assessed as upregulation of cleaved caspase-3 expression after 48 hrs by Western blot analysis; type: functional, cell-based
[31] = system: MDA-MB-231; test: Induction of apoptosis in human MDA-MB-231 cells assessed as downregulation of procaspase-3 expression at 1 to 100 uM after 48 hrs by Western blot analysis; type: functional, cell-based

COc1cccc2c1C(=O)c1c(O)c3c(c(O)c1C2=O)C[C@@](O)(C(=O)CO)C[C@@H]3O[C@H]1C[C@H](NC(=O)CCCc2ccc(N3C(=O)CC(SCCN)C3=O)cc2)[C@H](O)[C@H](C)O1 (some centres not stated)
logP at 3 h [1]: 0.313
Drug uptake [2]: Active
Drug uptake [3]: Active
IC50 [4]: > 100 µM

COc1cccc2c1C(=O)c1c(O)c3c(c(O)c1C2=O)C[C@@](O)(C(=O)CO)C[C@@H]3O[C@H]1C[C@H](NC(=O)C2CCC(CN3C(=O)CC(SCCN)C3=O)CC2)[C@H](O)[C@H](C)O1 (some centres not stated)
logP at 3 h [1]: -0.022
Drug uptake [2]: Active
Drug uptake [3]: Active
Activity [4]: Dose-dependent effect
IC50 [4]: > 100 µM

COc1cccc2c1C(=O)c1c(O)c3c(c(O)c1C2=O)C[C@@](O)(C(=O)CO)C[C@@H]3O[C@H]1C[C@H](NC(=O)CCCCCN2C(=O)CC(SCCNC(=O)[C@H](CC(=O)O)NC(=O)[C@@H](NC(=O)[C@H](CCC(=O)O)NC(=O)[C@H](CC(=O)O)NC(=O)[C@@H](N)CCCNC(=N)N)C(C)C)C2=O)[C@H](O)[C@H](C)O1 (some centres not stated) (H-RDEVD[Mal(S(CH2)2NH)(CH2)5CO]-{Doxorubicin(3'-N)})
TGI [5]: 15%
Drug metabolism [6]: metabolite_notdetected
Drug uptake [7]: Active
Activity [8]: Active
Activity [9]: Non-toxic
Activity [10]: Active
Stability [11]: Unstable
Drug uptake [2]: Active
Drug uptake [3]: Active
Activity [12]: Non-toxic
Activity [13]: Active
Drug metabolism [14]: metabolite_notdetected
Activity [15]: Dose-dependent effect
Drug uptake [16]: Active
Activity [17]: 75%
Activity [18]: Non-toxic
Drug uptake [19]: Active
Activity [20]: Active
Retention_time [21]: 21.4 min
Drug uptake [22]: Not Active
TGI [23]: 79%
Activity [24]: inactive
Activity [25]: inactive
Activity [26]: inactive
Activity [27]: Active

COc1cccc2c1C(=O)c1c(O)c3c(c(O)c1C2=O)C[C@@](O)(C(=O)CO)C[C@@H]3O[C@H]1C[C@H](N)[C@H](O)[C@H](C)O1 [DOXORUBICIN]
Activity [28]: Toxic
Drug uptake [2]: Active

COc1cccc2c1C(=O)c1c(O)c3c(c(O)c1C2=O)C[C@@](O)(C(=O)CO)C[C@@H]3O[C@H]1CC(NC(=O)C2CCC(CN3C(=O)CC(SC[C@H](N)C(=O)O)C3=O)CC2)[C@H](O)[C@H](C)O1 (single isomer, unassigned)
Drug uptake [2]: Not Active
Drug uptake [3]: Active

COc1cccc2c1C(=O)c1c(O)c3c(c(O)c1C2=O)C[C@@](O)(C(=O)CO)C[C@@H]3O[C@H]1C[C@H](NC(=O)CN2C(=O)CC(SCCN)C2=O)[C@H](O)[C@H](C)O1 (some centres not stated)
logP at 3 h [1]: -1.04
Drug uptake [2]: Active
Drug uptake [3]: Active
IC50 [4]: > 100 µM

COc1cccc2c1C(=O)c1c(O)c3c(c(O)c1C2=O)C[C@@](O)(C(=O)CO)C[C@@H]3O[C@H]1C[C@H](NC(=O)CCCCCN2C(=O)CC(SCCN)C2=O)[C@H](O)[C@H](C)O1 (some centres not stated)
logP at 3 h [1]: -0.383
Retention_time [29]: 20.6 min
Activity [30]: Dose-dependent effect
Activity [31]: Active
Drug uptake [2]: Active
IC50 [4]: 4.6 µM

COc1cccc2c1C(=O)c1c(O)c3c(c(O)c1C2=O)C[C@@](O)(C(=O)CO)C[C@@H]3O[C@H]1C[C@H](NC(=O)c2cccc(N3C(=O)CC(SCCN)C3=O)c2)[C@H](O)[C@H](C)O1 (some centres not stated)
logP at 3 h [1]: -0.121
Drug uptake [2]: Active
Drug uptake [3]: Active
IC50 [4]: > 100 µM
